One series deals with T1, PSMA (Homo sapiens, UniProt Q04609).
T1 construct: host or cells: LNCaP
Put plainly: Competitive binding assay in LNCaP cells with [177Lu]Lu-PSMA-617 as radioligand. As to conditions: for IC50: LNCaP cells, radioligand [177Lu]Lu-PSMA-617, 2 h at r.t., read-out: IC50 (half maximum competitive inhibitory concentration). How it is done:
In order to establish a structure–activity relationship, the binding affinity of the metal-free and ^natGa-complexes of the conjugates 7, 8, and 9 were determined in the PSMA-positive human prostate cancer cell line LNCaP by a competitive binding assay as previously reported using [^177Lu]Lu-PSMA-617 as the radioligand (Stemler et al. [2021]). The conjugate Glu-CO-Lys-Ahx-HBED-CC (PSMA-11) was included as the control.
The competitive binding assay was carried out using a MultiScreen®HTS Vacuum Manifold system (Merck, Germany) with 96-well filter plates. Serial dilutions of the metal-free conjugates and corresponding ^natGa complexes were prepared to obtain 7 final concentrations ranging from 0 to 1000 nM for each compound. PSMA-11 was also tested as control. Experiments were performed twice in triplicate for each compound. Freshly prepared ^177Lu-labeled PSMA-617 was used as the radioligand. A volume of 1 μL of [^177Lu]Lu-PSMA-617 stock solution (2.83 μM) was added into each tube of the dilution series (radioligand concentration 3.14 nM). For the experiment, 10^5 LNCaP cells were seeded into each well. The final volume of each well was 150 μL (100 μL cells in medium + 50 μL inhibitor in PBS). The experiment was incubated for 2 h at r.t. in a plate shaker. Then, the supernatants were removed by vacuum. Wells were furthermore washed out with ice-cold PBS (3 × 200 μL, pH 7.4). The filters were punched into tubes for the subsequent quantification of the activity in a Gamma-counter. A nonlinear regression algorithm was applied by the software GraphPad Prism to determine the specific inhibitory concentrations of 50% for the tested radiotracers.

Series [1] relates to PSMA-positive LNCaP cells. Put plainly: Cell uptake / internalization of 68Ga-labeled conjugates in LNCaP cells. It counts as cell-based, human. As to conditions: 1 h incubation; for Cell uptake: in words. How it is done: Next, the cellular uptake of the ^68Ga-labeled conjugates 7, 8, and 9 as well as [^68Ga]Ga-PSMA-11 was determined in PSMA-positive LNCaP cells.
LNCaP cells were seeded (10^6 cells well^−1) in poly-L-lysine coated 6-well plates 24 h before the experiment. Experiments were performed twice in triplicate for each compound. The radiolabeling solutions of [^68Ga]Ga-7, [^68Ga]Ga-8, [^68Ga]Ga-9, and [^68Ga]Ga-PSMA-11 were first diluted with PBS (pH 7.4) to a concentration of […]. 100 µL of this dilution were added to 3900 µL PBS (pH 7.4) to obtain final stock solutions of each radiolabeled compound (0.025 nmol mL^−1).
On the day of the experiment, the medium was replaced by fresh preheated medium (1.4 mL w/o blocking, 1.3 mL with blocking) and the cells incubated for 1 h at 37 °C. Next, the blocking solution was added (100 μL, 2500 pmol) to the corresponding wells. Finally, the corresponding radiolabeled conjugate (100 μL, 2.5 pmol) was added to a final assay volume of 1.5 mL well^−1. After 1 h incubation time, the supernatants were removed and the cells were washed carefully with ice-cold PBS buffer (2 × 1 mL, pH 7.4) followed by a subsequent glycine–HCl washing step (50 mM, pH 2.8, 2 × 1 mL well^−1). Cells were incubated with the glycine–HCl solution for 4 min at r.t. Next, corresponding fractions were transferred into counting tubes. Subsequently, the cells were lysed by adding NaOH (2 × 1 mL well^−1, 0.1 M) and the lysed fractions were also transferred into counting tubes. As standards, 100 µL of each radiolabeled conjugate stock solution (0.025 nmol mL^−1, 2.5 pmol) were pipetted into counting tubes containing 2 mL PBS buffer. The activity of the standards, the surface bound fractions and the internalized fractions were measured in a Gamma counter. Means were calculated and subtracted by the background. The percentages of unspecific and specific cell-surface bound and internalized activity were calculated from the standards.

The subject of series [2] is patient with metastatic prostate cancer. Put plainly: Clinical PET/CT imaging. The conditions noted are these: patient, 1 h p.i. On the procedure: PET/CT was performed approximately 1, 2, and 3 h after intravenous injection of 107 MBq of [^68Ga]Ga-9 and 1 h after injection of 113 MBq [^68Ga]Ga-PSMA-11 in a patient with metastatic prostate cancer. Whole body imaging extending from vertex to mid-femur was performed in 3D-ToF mode on a Biograph mCT 40 scanner (Siemens Medical Solutions, Knoxville, TN, USA) with an extended field of view of 21.4 cm. PET acquisition time was 3 min bed position^−1. Low-dose CT acquisition was performed for attenuation correction and anatomical localization using an X-ray tube voltage of 120 kV and a modulation of the tube current (maximal tube current: 30 mA; CARE Dose 4D software Siemens Healthineers, Erlangen, Germany) followed by reconstruction with a soft tissue reconstruction kernel (Bf37) to a slice thickness of 5 mm (increment 2–4 mm). PET emission data were additionally corrected for decay, randoms and scatter and reconstructed applying an iterative 3D ordered subset expectation maximization algorithm (3 iterations; 21 subsets) withGaussian filtering to transaxial resolution of 5 mm at full width at half maximum. The matrix size was 200 × 200 mm and the reconstructed pixel size was 5.0 mm.

For series [3], the system named is LNCaP xenograft bearing mice. As to conditions: 1 h p.i., cited from earlier work.
Another series concerns human serum proteins. Put plainly: in vitro. The series is classed as in vitro ADME. The conditions noted are these: male; for Protein binding: 1 h; for fraction unbound at 1 h: Protein binding. On the procedure: To determine the protein bound fraction of each trimeric radiotracer, 100 μL of the radiolabeling solution of the corresponding ^68Ga-labeled conjugate were added to preheated (37 °C) 1000 μL human serum (male, AB, Sigma Aldrich, USA) in triplicates. Samples were incubated for 1 h at 37 °C. After cooling to r.t., the samples were centrifuged utilizing molecular cutoff (30 kDa) centrifuge tubes at 4 G for 5 min at 4 °C. The filters were additionally rinsed with PBS buffer (2 × 100 μL). The background subtracted activity in the filters and the filtrates were determined in a Gamma counter and the percentage of protein bound fractions were calculated.

The format of series [4] is in vitro ADME. As to conditions: 2 h. How it is done:
100 μL of the radiolabeling solution of each ^68Ga-labeled tracer were added to preheated (37 °C) 1000 μL human serum (male, AB, Sigma Aldrich, USA) in triplicates and incubated at 37 °C. At 1 and 2 h, 100 µL aliquots were taken, mixed with 100 µL ice-cold acetonitrile, and centrifuged at 4 G for 5 min at 4 °C. The corresponding filtrates were kept on ice until HPLC analysis. The supernatants were then analyzed by radio-RP-HPLC and fractions of intact compounds were calculated from the HPLC chromatograms. (gradient 4,Gamma-ray detector: 100–900 keV, injection volume: 20 μl). tR ([^68Ga]Ga-7) = 12.1 min, tR ([^68Ga]Ga-8) = 14.4 min, tR ([^68Ga]Ga-9) = 25.2 min.

[5] abbreviates: 2.5 pmol per 10^6 cells, 68Ga-labeled.
Setting [6] is: lesions listed as 1 × prostate, 2 × lymph node metastasis.

The term fraction unbound denotes free concentration divided by total concentration.

SMILES strings stand for the structures. Read-outs that look alike come from different tables or passages of the source.

T1 sequence (Q04609 whole entry): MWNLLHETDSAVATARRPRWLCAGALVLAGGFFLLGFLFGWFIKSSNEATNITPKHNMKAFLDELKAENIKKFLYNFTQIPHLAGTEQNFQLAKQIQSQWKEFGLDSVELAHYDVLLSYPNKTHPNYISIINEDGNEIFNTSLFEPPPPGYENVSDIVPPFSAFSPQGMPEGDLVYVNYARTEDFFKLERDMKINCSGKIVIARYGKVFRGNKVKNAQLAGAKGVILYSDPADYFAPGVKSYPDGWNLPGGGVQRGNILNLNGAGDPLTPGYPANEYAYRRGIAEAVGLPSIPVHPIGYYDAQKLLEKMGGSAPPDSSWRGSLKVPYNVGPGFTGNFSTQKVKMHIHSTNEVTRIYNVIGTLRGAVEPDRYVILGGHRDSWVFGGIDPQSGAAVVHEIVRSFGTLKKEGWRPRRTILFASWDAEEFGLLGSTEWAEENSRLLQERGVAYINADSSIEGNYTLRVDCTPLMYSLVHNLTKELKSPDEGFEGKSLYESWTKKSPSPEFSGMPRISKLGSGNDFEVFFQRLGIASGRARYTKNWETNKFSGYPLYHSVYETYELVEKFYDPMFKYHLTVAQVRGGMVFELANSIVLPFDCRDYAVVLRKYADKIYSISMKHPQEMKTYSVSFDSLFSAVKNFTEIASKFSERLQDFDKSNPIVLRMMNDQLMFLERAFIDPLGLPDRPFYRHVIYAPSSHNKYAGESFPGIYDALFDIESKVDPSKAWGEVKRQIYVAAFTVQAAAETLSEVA

`O=C(O)CC[C@H](NC(=O)N[C@@H](CCCCNC(=O)CCCCn1ccnc1CN1CCN(Cc2nccn2CCCCC(=O)NCCCC[C@H](NC(=O)N[C@@H](CCC(=O)O)C(=O)O)C(=O)O)CCN(Cc2nccn2CCCCC(=O)NCCCC[C@H](NC(=O)N[C@@H](CCC(=O)O)C(=O)O)C(=O)O)CC1)C(=O)O)C(=O)O` [Compound 7, (2S,2'S,2''S)−2,2',2''-(((((1S,1'S,1''S)-((5,5',5''-(((1,4,7-triazonane-1,4,7-triyl)tris(methylene))tris(1H-imidazole-2,1-diyl))tris(pentanoyl))tris(azanediyl))tris(1-carboxypentane-5,1-diyl))tris(azanediyl))tris(carbonyl))tris(azanediyl))triglutaric acid]: on PSMA, the IC50 is 264 nM.
With `O=C(O)CC[C@H](NC(=O)N[C@@H](CCCCNC(=O)CCCCCNC(=O)CCCCn1ccnc1CN1CCN(Cc2nccn2CCCCC(=O)NCCCCCC(=O)NCCCC[C@H](NC(=O)N[C@@H](CCC(=O)O)C(=O)O)C(=O)O)CCN(Cc2nccn2CCCCC(=O)NCCCCCC(=O)NCCCC[C@H](NC(=O)N[C@@H](CCC(=O)O)C(=O)O)C(=O)O)CC1)C(=O)O)C(=O)O` [Compound 8, (3S,3'S,3''S,7S,7'S,7''S)−24,24',24''-(((1,4,7-triazonane-1,4,7-triyl)tris(methylene))tris(1H-imidazole-2,1-diyl))tris(5,13,20-trioxo-4,6,12,19-tetraazatetracosane-1,3,7-tricarboxylic acid)], the IC50 at PSMA was found to be 65 nM. Besides, the “Factor by which affinity is lower compared to PSMA-11” value on PSMA (LNCaP competitive binding, metal-free conjugate) is ~ 3.
Consider `O=C(O)CC[C@H](NC(=O)N[C@@H](CCCCNC(=O)[C@H](Cc1ccc2ccccc2c1)NC(=O)[C@H]1CC[C@H](CNC(=O)CCCCn2ccnc2CN2CCN(Cc3nccn3CCCCC(=O)NC[C@H]3CC[C@H](C(=O)N[C@@H](Cc4ccc5ccccc5c4)C(=O)NCCCC[C@H](NC(=O)N[C@@H](CCC(=O)O)C(=O)O)C(=O)O)CC3)CCN(Cc3nccn3CCCCC(=O)NC[C@H]3CC[C@H](C(=O)N[C@@H](Cc4ccc5ccccc5c4)C(=O)NCCCC[C@H](NC(=O)N[C@@H](CCC(=O)O)C(=O)O)C(=O)O)CC3)CC2)CC1)C(=O)O)C(=O)O` [Compound 9], for which the IC50 at PSMA was found to be 5.9 nM. The same compound came in with a Cell internalization in series [1] (setting [5]) of 17.8 ± 2.5%.
Take `O=C(O)CCc1ccc(O)c(CN(CCN(CC(=O)O)Cc2cc(CCC(=O)NCCCCCC(=O)NCCCC[C@H](NC(=O)N[C@@H](CCC(=O)O)C(=O)O)C(=O)O)ccc2O)CC(=O)O)c1` [PSMA-11, Glu-CO-Lys-Ahx-HBED-CC, reference compound]: the IC50 on PSMA was 18.5 nM.
As for `O=C([O-])CN(CCN(CC(=O)[O-])Cc1cc(CCC(=O)NCCCCCC(=O)NCCCC[C@H](NC(=O)N[C@@H](CCC(=O)O)C(=O)O)C(=O)O)ccc1[O-])Cc1cc(CCC(=O)O)ccc1[O-].[68Ga+3].[OH3+]` [[^68Ga]Ga-PSMA-11, reference compound], in series [1] (setting [5]), the Cell internalization is reported as 5.2 ± 0.2% and the Cell-surface bound fraction worked out at 4.5 ± 0.2%. Besides, in series [2], the “SUVpeak in the parotid gland” value is 37.0, the “SUVpeak in the submandibular gland” value worked out at 31.6, the SUVpeak kidneys was determined as 126.3 and the SUVpeak liver turned out to be 8.5. In series [2] (setting [6]), the “SUVpeak, first target lesion” value stood at 35.3; the “SUVpeak, second target lesion” value worked out at 16.3; the “SUVpeak, third target lesion” value stood at 20.6. Besides, in series [3] (ref Benešová et al. ([2015])), the Kidney uptake is 187.4 ± 25.3 % IA g^−1, the Tumor uptake was 10.58 ± 4.5 % IA g^−1 and the Tumor-to-kidney ratio is 0.06. Besides, in series [3] (ref Eder et al. ([2012])), the Kidney uptake is listed as 139.4 ± 21.4 % IA g^−1, the Liver uptake is 0.87 ± 0.05 % IA g^−1, the Tumor uptake was 7.70 ± 1.45 % IA g^−1 and the Tumor-to-kidney ratio was 0.06. Further, in series [3] (ref Eder et al. ([2012])), the Tumor-to-liver ratio is reported as 8.85.
As for `O=C(O)CC[C@H](NC(=O)N[C@@H](CCCCNC(=O)CCCCn1ccnc1CN1CCN(Cc2nccn2CCCCC(=O)NCCCC[C@H](NC(=O)N[C@@H](CCC(=O)O)C(=O)O)C(=O)O)CCN(Cc2nccn2CCCCC(=O)NCCCC[C@H](NC(=O)N[C@@H](CCC(=O)O)C(=O)O)C(=O)O)CC1)C(=O)O)C(=O)O` [^nat/68Ga-7, metal not drawn], the IC50 at PSMA turned out to be 450 nM. For the same compound, the Cell uptake result in series [1] is listed as “negligible”. Moreover, in the series on human serum proteins, the Protein binding was 63.8 ± 4.0% and the unbound share (fraction unbound) at 1 h is ~0.36. Moreover, in series [4], the “Metabolic stability in human serum” value was “no significant degradation”.
Turning to `O=C(O)CC[C@H](NC(=O)N[C@@H](CCCCNC(=O)CCCCCNC(=O)CCCCn1ccnc1CN1CCN(Cc2nccn2CCCCC(=O)NCCCCCC(=O)NCCCC[C@H](NC(=O)N[C@@H](CCC(=O)O)C(=O)O)C(=O)O)CCN(Cc2nccn2CCCCC(=O)NCCCCCC(=O)NCCCC[C@H](NC(=O)N[C@@H](CCC(=O)O)C(=O)O)C(=O)O)CC1)C(=O)O)C(=O)O` [^nat/68Ga-8, metal not drawn], on PSMA, the IC50 was determined as 90 nM. The compound also gave a Cell internalization in series [1] (setting [5]) of 0.08 ± 0.02%. In addition, the Cell uptake result in series [1] is “negligible”. In the series with human serum proteins, the Protein binding was determined as 68.2 ± 1.5% and the fraction unbound at 1 h is ~0.35. For the same compound, the “Metabolic stability in human serum” value in series [4] is given as “no significant degradation”.

Values taken from PMC11635053, “Development of a homotrimeric PSMA radioligand based on the NOTI chelating platform” (EJNMMI Radiopharmacy and Chemistry, 2024).
